Values quoted from earlier work in publication PMC9207678 (Journal of Mass Spectrometry and Advances in the Clinical …, 2022).

Settings: ratio to insulin, ref [2], [3]

half-life in circulation relative to insulin: 6–10 times
Substance: C-peptide
